From publication PMC3397457, “Preclinical Evaluation of Anticancer Efficacy and Pharmacological Properties of FBA-TPQ, a Novel Synthetic Makaluvamine Analog” (Marine Drugs, 2012) come the findings set out here.

SMILES strings stand for the structures.

Data set [1] concerns human pancreatic cancer cell lines (HPAC, Panc-1, Mia PaCa-2). The data set can be described thus: MTT cell survival assay, pancreatic cancer cell lines taken together. It counts as cell-based. Conditions: 72 h. As for the experimental part: (§1) We evaluated the effects of FBA-TPQ on the survival of several human pancreatic cancer cell lines, including HPAC (p53^+/+), Panc-1(p53^+/−), and Mia PaCa-2(p53^+/−), as well as normal IRM90 fetal fibroblast cells (Figure 2a). Cells were exposed to various concentrations of the test compound (0–10 µM) for 72 h, and cell survival rates were determined by the MTT assay, using a procedure reported previously. FBA-TPQ exerted potent effects against the test cancer cell lines, leading to significant decreases in cell viability.
The effect of the test compound on human pancreatic cancer cell viability, expressed as the percentage of cell survival, was determined using the MTT (3-(4,5-dimethylthiazol-2-yl)-2,5-diphenyl tetrazolium bromide) assay. The MTT assay is colorimetric assay for measuring the activity of enzymes that reduce MTT to formazan dyes, giving a purple color. Cells were grown in 96-well plates at 4–5 × 10^3 cells per well and exposed to different concentrations of the test compound (0, 0.1, 0.25, 0.5, 0.75, 1, 5 and 10 µM). […] The absorbance at 570 nm was recorded using an OPTImax microplate reader (Molecular Devices; Sunnyvale, CA, USA). The cell survival percentages were calculated by dividing the mean OD of compound-containing wells by that of DMSO-containing control wells. […]

In another data set the test system is Panc-1 cells. Kind of data set: MTT cell survival assay, Panc-1. It counts as cell-based. As to conditions: Homo sapiens, Panc-1, 72 h, read-out: Cytotoxicity IC50. As for the experimental part: as §1
Human pancreatic cancer cells were obtained from the American Type Culture Collection (Rockville, MD). All cell culture media contained 10% FBS and 1% penicillin/streptomycin. […]
The effect of the test compound on human pancreatic cancer cell viability, expressed as the percentage of cell survival, was determined using the MTT (3-(4,5-dimethylthiazol-2-yl)-2,5-diphenyl tetrazolium bromide) assay. […] The absorbance at 570 nm was recorded using an OPTImax microplate reader (Molecular Devices; Sunnyvale, CA, USA). The cell survival percentages were calculated by dividing the mean OD of compound-containing wells by that of DMSO-containing control wells. […]

The subject of the next data set is Panc-1 xenograft tumors. Kind of data set: Panc-1 xenograft model in nude mice. It is filed as in vivo. Conditions: for inhibition of tumor growth: 5 days/week, vs control group. As for the experimental part:
Since it exerted potent effects in vitro, we determined whether FBA-TPQ could also show anti-tumor effects in vivo. Nude mice bearing Panc-1 xenograft tumors were treated with vehicle or FBA-TPQ at 5 or 10 mg/kg/day, 5 days per week.
Figure 3 In vivo effects of FBA-TPQ administered to nude mice bearing Panc-1 xenograft tumors. (a) FBA-TPQ was administered by intraperitoneal (ip) injection at doses of 5 mg/kg/day, 5 days/week for 3 weeks and 10 mg/kg/day, 5 days/week for 2 weeks, tumors were measured […]; (b) At the end of the experiment, representative tumors were removed and photographed; (c) Animals were also monitored for changes in body weight as a surrogate marker for toxicity.
The animal use and care protocol was approved by the Institutional Animal Use and Care Committee of Texas Tech University Health Sciences Center. Female athymic pathogen-free nude mice (nu/nu, 4–6 weeks) were purchased from the Charles River Laboratories International. Inc. (Wilmington, MA, USA). To establish Panc-1 human pancreatic cancer xenograft tumors, cultured Panc-1 cells were harvested from monolayer cultures, washed twice with serum-free medium, re-suspended and injected sc (5 × 10^6 cells, total volume 0.2 mL) into the left inguinal area of the mice. All animals were monitored for activity, physical condition, body weight, and tumor growth. Tumor size was determined every other day by caliper measurement of two perpendicular diameters of the implant. Tumor mass (in g) was calculated by the formula, 1/2a × b^2 where “a” is the long diameter and “b” is the short diameter (in cm).
The animals bearing human cancer xenografts were randomly divided into various treatment groups and a control group (7–10 mice/group). The untreated control group received the vehicle only. For the Panc-1 xenograft model, FBA-TPQ was dissolved in PEG400: ethanol: saline (57.1: 14.3: 28.6, v/v/v),and was administered by intraperitoneal (ip) injection at doses of 5 and 10 mg/kg/d, 5 d/wk for 3 weeks.

Consider `O=C1C(NCc2ccc(F)cc2)=CC2=NCCc3c[nH]c1c32` [FBA-TPQ, 7-(4-fluorobenzylamino)-1,3,4,8-tetrahydropyrrolo[4,3,2-de]quinolin-8(1H)-one], for which the “differences in IC50, normal IMR90 fibroblasts vs pancreatic cancer cells” value in data set [1] is given as 10–50 fold. Moreover, the half-inhibitory concentration (IC50) with Panc-1 cells was determined as 110 ± 10 nM. Moreover, the “inhibition of tumor growth” value is 77.8% in the data set with Panc-1 xenograft tumors (5 mg/kg/day ip) and 90.1% with Panc-1 xenograft tumors (10 mg/kg/day ip). In addition, the “host toxicity (body weight as surrogate marker)” value in the data set on Panc-1 xenograft tumors (5 and 10 mg/kg/day ip) was “No significant host toxicity”. The tumor regression/remission result with Panc-1 xenograft tumors (both treated groups (5 and 10 mg/kg/day ip)) is reported as “significant tumor regression or complete remission”.
